# Patent US20240238314A1, “TREATMENT OF ESSENTIAL TREMOR” (Sage Therapeutics, Inc., priority 2021, published 2024)
# What was measured:
# Assay type in all cases: in vivo, human
# [1] = test system: individuals with essential tremor; experiment: Phase 2 study, Compound 1 60 mg once daily for 28 days: TETRAS performance subscale part 4/6/7/8 total score; settings: Full Analysis Set
# Experimental: 4) Upper limb tremor: Tremor is assessed during three maneuvers: forward horizontal reach posture, lateral “wing beating” posture and finger-nose-finger testing. Each upper limb is assessed and scored individually. The forward horizontal reach posture is held for 5 seconds. The lateral wing beating posture is held for 20 seconds. The finger-nose-finger movement is executed three times. Amplitude assessment should be estimated using the maximally displaced point of the hand at the point of greatest displacement along any single plane. For example, the amplitude of a pure supination-pronation tremor, pivoting around the wrist would be assessed at either the thumb or fifth digit.
# The lines of the spiral should be approximately 1.3 cm (0.5 inch) apart. Then ask the subject to copy the spiral. Test and score each hand separately. Use a ballpoint pen. The pen should be held such that no part of the limb touches the table. Secure the paper on the table in a location that is suitable for the patient's style of drawing. Score the tremor in the spiral, not the movement of the limb. Each limb is assessed and scored individually. 0=normal. 1=slight: tremor barely visible. 2=mild: obvious tremor. 3=moderate: portions of figure not recognizable. 4=severe: figure not recognizable.
# 7) Handwriting: Have patient write the standard sentence “This is a sample of my best handwriting” using the dominant hand only. Patients must write cursively (i.e., no printing). They cannot hold or stabilize their hand with the other hand. Use a ballpoint pen. Secure the paper on the table in a location that is suitable for the patient's style of writing. Score the tremor in the writing, not the movement of the limb. 0=normal. 1=slight: untidy due to tremor that is barely visible. 2=mild: legible, but with considerable tremor. 3=moderate: some words illegible. 4=severe: completely illegible.
# 8) Dot approximation task: The examiner makes a dot or X and instructs the subject to hold the tip of the pen “as close as possible to the dot (or center of an X) without touching it, (ideally approximately 1 mm) for 10 seconds.” Each hand is scored separately. 0=no tremor. 1=tremor is barely visible. 1.5=tremor is visible, but less than 1 cm. 2=tremor is 1-<3 cm amplitude. 2.5=tremor is 3-<5 cm amplitude. 3=tremor is 5-<10 cm amplitude. 3.5=tremor is 10-<20 cm amplitude. 4=tremor is >20 cm amplitude.
# (§1) Participants were 18 to 80 years of age, inclusive, diagnosed of ET of at least 3 years duration with scores of at least 1.5 for each of the six items that comprised the combined total upper limb TETRAS (total performance subscale part 4) with the total score for the dominant upper limb (the sum of the 3 items for either the right or left upper limb, whichever is dominant) being at least 5.5, at both Screening and predose on Day 1.
# (§2) Participants were randomized to receive Compound 1 60 mg or placebo once daily in the morning on a 1:1 basis. If participants reported a TEAE considered by investigator to be related to Compound 1 and not tolerable, investigator might reduce the dose of Compound 1 from 60 mg in 15 mg decrements (i.e., 60 mg, to 45 mg, to 30 mg), as medically appropriate. If intolerable TEAEs persist at the 30 mg dose, Compound 1 was permanently stopped.
# (§3) This study included a Screening Period of up to 28 days, a 29-day treatment period consisting of 28 days of dosing with the end of treatment visit intended to be on Day 29 at trough, and a 14-day follow-up period relative to final dose. Study patients were not taking other medications for essential tremor during the 28-day treatment period.
# Similarly, an MMRM was be used for the analysis of the following variables: changes from baseline in TETRAS performance subscale part 4, 6, 7, and 8 combined score, and TETRAS ADL score. For each model, the comparison of interest was between Compound 1 tablets and matching placebo at the 15-day time point. […]
# [2] = test system: individuals with essential tremor; experiment: Phase 2 study, Compound 1 60 mg once daily for 28 days: TETRAS ADL total score
# [3] = test system: individuals with essential tremor; experiment: Phase 2 study, Compound 1 60 mg once daily for 28 days: TETRAS performance subscale total score; settings: Full Analysis Set
# Experimental: As used herein, “The Essential Tremor Rating Assessment Scale (TETRAS) performance subscale total score” refers to an assessment scale for essential tremor developed by The Tremor Research Group (Elble, R. J., J. Neurol. Neuromedicine 1(4):34-38 (2016); Elble, R. J. et. al., Mov. Disord. 27(12); 1567-1569 (2012)). The TETRAS […] performance subscale includes 9 metrics or characteristics, wherein each metric or characteristic is scored 0 to 4. Some metrics or characteristics are performed on both right and left limbs and/or include multiple subitems. Scores for each of the 9 characteristics are then added to give a total score of no greater than 64. The 9 metrics or characteristics include:
# as §1, §2, §3
smiles,measurement,setting,value
COC[C@@]1(O)CC[C@H]2[C@@H](CC[C@@H]3[C@@H]2CC[C@]2(C)[C@@H](C(=O)Cn4nnc(C)n4)CC[C@@H]32)C1 [Compound 1],LSMean difference vs placebo in change from baseline in TETRAS performance subscale part 4/6/7/8 total score,[1]; Day 8,−1.22
same,Model-based LSMean (SE) change from baseline in TETRAS performance subscale part 4/6/7/8 total score,[1]; Day 8,−2.84 (0.579)
same,LSMean difference vs placebo in change from baseline in TETRAS performance subscale part 4/6/7/8 total score,"[1]; Day 15, 5 hr postdose",−1.03
same,Model-based LSMean (SE) change from baseline in TETRAS performance subscale part 4/6/7/8 total score,"[1]; Day 15, 5 hr postdose",−4.59 (0.840)
same,LSMean difference vs placebo in change from baseline in TETRAS performance subscale part 4/6/7/8 total score,"[1]; Day 15, 8 hr postdose",−0.23
same,Model-based LSMean (SE) change from baseline in TETRAS performance subscale part 4/6/7/8 total score,"[1]; Day 15, 8 hr postdose",−3.75 (0.755)
same,LSMean difference vs placebo in change from baseline in TETRAS performance subscale part 4/6/7/8 total score,"[1]; Day 15, predose",−0.55
same,Model-based LSMean (SE) change from baseline in TETRAS performance subscale part 4/6/7/8 total score,"[1]; Day 15, predose",−2.63 (0.671)
same,LSMean difference vs placebo in change from baseline in TETRAS performance subscale part 4/6/7/8 total score,[1]; Day 22,−0.77
same,Model-based LSMean (SE) change from baseline in TETRAS performance subscale part 4/6/7/8 total score,[1]; Day 22,−2.93 (0.691)
same,LSMean difference vs placebo in change from baseline in TETRAS performance subscale part 4/6/7/8 total score,[1]; Day 29,"−0.59 (−2.45, 1.28)"
same,Model-based LSMean (SE) change from baseline in TETRAS performance subscale part 4/6/7/8 total score,[1]; Day 29,−2.81 (0.699)
same,LSMean difference vs placebo in change from baseline in TETRAS performance subscale part 4/6/7/8 total score,"[1]; Day 29, listed as Cmpd 1",−0.59
same,LSMean difference vs placebo in change from baseline in TETRAS performance subscale part 4/6/7/8 total score,[1]; Day 42,1.96
same,Model-based LSMean (SE) change from baseline in TETRAS performance subscale part 4/6/7/8 total score,[1]; Day 42,−1.17 (0.673)
same,LSMean Difference (CI) vs placebo in CFB in TETRAS ADL total score,"[2]; Baseline TETRAS ADL ≥ 28, Day 29",−1.47
same,LSMean difference vs placebo in change from baseline in TETRAS ADL total score,"[2]; Full Analysis Set, Day 8",−2.80
same,"Change from baseline in TETRAS ADL subscale total score compared with placebo, in words","[2]; Full Analysis Set, Day 29",numerically superior to placebo but failed to reach statistical significance
same,LSMean difference vs placebo in change from baseline in TETRAS ADL total score,"[2]; Full Analysis Set, Day 29","−1.37 (−3.81, 1.08)"
same,LSMean difference vs placebo in change from baseline in TETRAS performance subscale total score,[3]; Day 8,−1.26
same,Model-based LSMean (SE) change from baseline in TETRAS performance subscale total score,[3]; Day 8,−3.55 (0.780)
same,LSMean difference vs placebo in change from baseline in TETRAS performance subscale total score,"[3]; Day 15, 5 hr postdose",−1.52
same,Model-based LSMean (SE) change from baseline in TETRAS performance subscale total score,"[3]; Day 15, 5 hr postdose",−5.90 (1.015)
same,LSMean difference vs placebo in change from baseline in TETRAS performance subscale total score,"[3]; Day 15, 8 hr postdose",0.01
same,Model-based LSMean (SE) change from baseline in TETRAS performance subscale total score,"[3]; Day 15, 8 hr postdose",−4.61 (0.954)
same,LSMean difference vs placebo in change from baseline in TETRAS performance subscale total score,"[3]; Day 15, predose",−0.91
same,Model-based LSMean (SE) change from baseline in TETRAS performance subscale total score,"[3]; Day 15, predose",−3.46 (0.878)
same,LSMean difference vs placebo in change from baseline in TETRAS performance subscale total score,[3]; Day 22,−0.24
same,Model-based LSMean (SE) change from baseline in TETRAS performance subscale total score,[3]; Day 22,−3.16 (0.914)
same,LSMean difference vs placebo in change from baseline in TETRAS performance subscale total score,[3]; Day 29,"−0.32 (−2.78, 2.14)"
same,Model-based LSMean (SE) change from baseline in TETRAS performance subscale total score,[3]; Day 29,−3.22 (0.922)
same,LSMean difference vs placebo in change from baseline in TETRAS performance subscale total score,"[3]; Day 29, listed as Cmpd 1",−0.32
same,LSMean difference vs placebo in change from baseline in TETRAS performance subscale total score,[3]; Day 42,2.28
same,Model-based LSMean (SE) change from baseline in TETRAS performance subscale total score,[3]; Day 42,−1.59 (0.820)
